Legend:
Concanavalin A (Con A) [1] = target: T1, Concanavalin A (Con A) (Canavalia ensiformis, UniProt P02866); assay: SPR inhibition competition assay, Con A binding to mannosylated sensor chip; conditions: for IC50: 100 nM Con A, LBB; for RIP per Carbohydrate Ligand: corrected for carbohydrate number per nanoparticle; for RIP per Glycomacromolecular Ligand: corrected for glycomacromolecule number per nanoparticle; for RIP: relative inhibitory potency based on IC50 of αMeMan on same chip (IP ≡ 1)
T1 construct: purchased LKT Laboratories (Biomol, Hamburg, Germany)
Description: As sensor chip a SA (streptavidin) chip from GE Healthcare Life Sciences was used. The positive (α-D-Mannose-PAA-biotin, flow cell 2) and negative (α-D-Galactose-PAA-biotin, flow cell 1) control for Con A binding were immobilized on the sensor chip surface using the standard biotin streptavidin capture method as adapted from previously established protocols. Therefore, a 4.2 µg/mL solution of both polymers was prepared in HBS-P+ buffer (pH 7.4, GE Healthcare, Uppsala, Sweden). The same buffer was used as running buffer in a flow rate of 10 µL/min. For immobilization, the immobilization wizard was used with a specified contact time of 420 s. Sodium chloride, sodium hydroxide and isopropanol solutions were prepared as specified by the manufacturer. […] After approximately 500 measurement cycles, a new SA (streptavidin) chip was used for further measurements. For immobilization, the same procedure was used as described above.
SPR inhibition competition studies were performed using the wizard template kinetics/affinity with contact times of 105 s and dissociation times of 180 s. Before the run, the system was primed with LBB (pH 7.40 ± 0.01, 10 mM Hepes, 50 mM NaCl, 1 mM CaCl2, 1 mM MnCl2) which was used as running buffer and two startup cycles were performed. The experiment was performed in multi cycle mode. For all experiments a 1 mg/mL stock solution of Con A was prepared in LBB and was shaken for 1 h. Then it was filtrated (Acrodisc® 32 mm syringe filter with a 0.1 µm Supor® membrane from Pall Corporation, Newquay, UK) and the concentration was determined spectrophotometrically. The stock solution was diluted to give a 200 nM solution of Con A. Glyco-AuNP solutions were concentrated by centrifugation (Allegra^TM 25R Centrifuge, Beckman Coulter, Brea, CA, USA, 12 h, 4500 rcf) and were resuspended in LBB to give a 20 nM stock solution. The concentration was verified by UV measurement. This glyco-AuNP stock solution was then used to prepare the dilution series in LBB. […] For N-ethylmaleimide capped glycomacromolecule 1a a dilution series with concentrations of 0, 1, 10, 20, 50, 100, 200, 500, 1000 µM and 3a a dilution series with concentrations of 0, 2, 20, 100, 200, 500, 1000, 1500, 2000 nM was prepared. For αMeMan a dilution series with concentrations of 0, 10, 100, 500, 1000, 1500, 2000, 5000 µM was prepared. As negative control, four representative concentrations of 0, 10, 1500 and 5000 µM were prepared for D-(+)-galactose.
For the experiment Con A and sample solutions were mixed in a 1:1 ratio to give half of the prepared concentrations. Each mixture was injected over both flow cells whereas the binding signal on flow cell 1 was subtracted from the response on flow cell 2. As regeneration procedure three consecutive injections of a 0.8 M solution of αMeMan in LBB with a contact time of 30 s was used. The relative response value at the beginning of the dissociation phase (20 s after the end of sample injection) for the 100 nM Con A solution with zero sample concentration was set to 100% binding. The relative response values of the Con A solutions incubated with the respective sample in serial dilutions were referred to Con A and calculated for relative binding in %. IC50 values were calculated as concentration of the sample that result in 50% inhibition of Con A binding to the mannosylated sensor chip surface. RIP (relative inhibitory potency) values are based on the IC50 value for αMeMan (IP (inhibitory potency) ≡ 1). All glyco-AuNPs, glycomacromolecules and αMeMan have been tested in three independent experiments (triplicate determination per experiment for αMeMan and glyco-AuNPs, dublicate determination per experiment for glycomacromolecules 1a and 3a).

Concanavalin A (Con A) [2] = target: T1, Concanavalin A (Con A); assay: Kinetic study of aggregation behavior with Con A by DLS and UV-Vis spectroscopy; type: binding; conditions: αMeMan 60 mM added to wells or DLS cuvettes
Description: For the kinetic study of aggregation behavior with Con A performed by DLS and UV-Vis spectroscopy, a similar procedure as described by the group of Gibson was performed [41, 42].
For the kinetic studies using absorbance spectroscopy (Thermo Scientific, Vantaa, Finland), the stock solutions were mixed in wells of a 96-well microtiter-plate (100 µL of each solution per well). The absorbance at 400 and 700 nm was measured every minute for 30 min.
For the kinetic studies using DLS, the stock solutions were filtrated twice (Roth, Rotilabo® syringe filter, Karlsruhe, Germany, PTFE, 5.0 µm) and were pre-tempered to 20 °C. Then 750 µL of each stock solution were filled into the culture tubes and mixed. DLS measurements were performed at 20 °C and at a scattering angle of 90°. Every minute an intensity-time autocorrelation function was recorded with an acquisition time of 30 s during a period of 30 min.

[3] = SA sensor chip used for 1a and 3a (footnote 1)

| Compound | inhibition of Con A binding (Concanavalin A (Con A) [1]; negative control, four representative concentrations) | IC50 (Concanavalin A (Con A) [1]; [3]) [µM] | IC50 (Concanavalin A (Con A) [1]; SA sensor chip with αMeMan IC50 (5.17 ± 0.84) × 10^5 nM) [µM] | RIP per Carbohydrate Ligand (Concanavalin A (Con A) [1]) | RIP per Glycomacromolecular Ligand (Concanavalin A (Con A) [1]) | RIP (Concanavalin A (Con A) [1]) | redispersion of Con A induced glyco-AuNP aggregates (Concanavalin A (Con A) [2]) |
| --- | --- | --- | --- | --- | --- | --- | --- |
| OC[C@H]1OC(O)[C@H](O)[C@@H](O)[C@H]1O (stereo partly drawn) [D-(+)-galactose] | no inhibition |  |  |  |  |  |  |
| CO[C@H]1O[C@H](CO)[C@@H](O)[C@H](O)[C@@H]1O [αMeMan, methyl-α-D-mannopyranoside] |  | 325 | 517 | 1 | 1 | 1 | redispersion of the aggregates |
| Man(2)-5-Gly(1)-EDS(3,4)-Cys(5)-N-ethylmaleimide [glycomacromolecule 1a] |  | 70 |  | 5 | 5 | 5 |  |
| Man(2,4,6,8,10)-11-Gly(1)-EDS(3,5,7,9)-Cys(11)-N-ethylmaleimide [glycomacromolecule 3a] |  |  |  | 419 | 2096 | 2096 |  |
